Reference: ChEMBL document CHEMBL1134731, “1,3-Biarylureas as selective non-peptide antagonists of the orexin-1 receptor” (Bioorg Med Chem Lett, 2001)
Values belong to the molecule of their own block, whether it stands above or below them.

Columns and labels:
[1] = molecular target: T1, Orexin/Hypocretin receptor type 1 (Homo sapiens) (UniProt O43613); experiment: Binding affinity towards orexin receptor type 1.
T1 sequence (whole entry): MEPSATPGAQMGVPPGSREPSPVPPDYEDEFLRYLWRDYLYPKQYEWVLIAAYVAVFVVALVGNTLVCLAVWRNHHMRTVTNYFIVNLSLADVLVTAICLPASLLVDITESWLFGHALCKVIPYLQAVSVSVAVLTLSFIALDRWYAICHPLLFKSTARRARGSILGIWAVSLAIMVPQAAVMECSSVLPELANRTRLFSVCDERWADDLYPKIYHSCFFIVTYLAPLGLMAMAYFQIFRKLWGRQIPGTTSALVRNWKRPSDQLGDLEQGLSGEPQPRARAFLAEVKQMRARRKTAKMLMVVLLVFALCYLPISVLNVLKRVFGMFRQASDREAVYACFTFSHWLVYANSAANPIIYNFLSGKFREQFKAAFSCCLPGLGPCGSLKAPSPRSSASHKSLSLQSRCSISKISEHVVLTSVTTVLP

[2] = molecular target: 5-hydroxytryptamine receptor 2B (Homo sapiens, UniProt P41595); experiment: Binding affinity against 5-hydroxytryptamine 2B receptor
Chain of 5-hydroxytryptamine receptor 2B (P41595 whole entry): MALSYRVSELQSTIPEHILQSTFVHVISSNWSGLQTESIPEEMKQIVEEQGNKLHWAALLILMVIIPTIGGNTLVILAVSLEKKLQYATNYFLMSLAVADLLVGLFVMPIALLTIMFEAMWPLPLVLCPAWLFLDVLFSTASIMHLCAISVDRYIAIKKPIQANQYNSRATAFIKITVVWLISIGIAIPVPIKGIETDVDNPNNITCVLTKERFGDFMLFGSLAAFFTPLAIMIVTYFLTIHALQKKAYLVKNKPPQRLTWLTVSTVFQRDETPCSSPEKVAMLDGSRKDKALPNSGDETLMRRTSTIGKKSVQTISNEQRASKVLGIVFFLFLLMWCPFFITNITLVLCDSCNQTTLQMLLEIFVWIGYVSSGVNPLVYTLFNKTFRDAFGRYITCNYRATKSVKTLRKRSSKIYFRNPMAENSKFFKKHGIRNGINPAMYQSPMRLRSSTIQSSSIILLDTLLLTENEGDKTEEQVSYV

[3] = Steady state concentration was evaluated; type: ADME
[4] = Compound was tested in vivo for steady state brain-blood ratio after intravenous infusion of 1.8 mg/kg/h free base drug for 12h.; type: functional
[5] = molecular target: T2, 5-hydroxytryptamine receptor 2C (Homo sapiens, UniProt P28335); experiment: Binding affinity against 5-hydroxytryptamine 2C receptor
T2 sequence (P28335 whole entry): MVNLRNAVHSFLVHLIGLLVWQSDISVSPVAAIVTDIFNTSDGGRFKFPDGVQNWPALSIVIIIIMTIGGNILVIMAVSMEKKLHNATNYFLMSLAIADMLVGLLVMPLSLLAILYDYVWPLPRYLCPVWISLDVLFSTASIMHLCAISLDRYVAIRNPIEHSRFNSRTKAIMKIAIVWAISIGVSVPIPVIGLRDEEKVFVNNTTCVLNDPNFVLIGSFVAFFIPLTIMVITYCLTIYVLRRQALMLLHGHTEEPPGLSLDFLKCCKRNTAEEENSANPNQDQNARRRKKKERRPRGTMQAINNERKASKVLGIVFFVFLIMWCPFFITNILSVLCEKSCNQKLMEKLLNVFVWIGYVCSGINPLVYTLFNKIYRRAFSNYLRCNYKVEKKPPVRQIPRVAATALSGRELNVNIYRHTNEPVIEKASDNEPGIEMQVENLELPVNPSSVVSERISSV

in vivo = conditions: eutheria, po
[6] = Brain level determined after 2 hr from ip bolus dosing of 10 mg/kg; type: functional; conditions: route intraperitoneal
[7] = molecular target: T3, Orexin receptor type 2 (Homo sapiens) (UniProt O43614)
T3 sequence (whole entry): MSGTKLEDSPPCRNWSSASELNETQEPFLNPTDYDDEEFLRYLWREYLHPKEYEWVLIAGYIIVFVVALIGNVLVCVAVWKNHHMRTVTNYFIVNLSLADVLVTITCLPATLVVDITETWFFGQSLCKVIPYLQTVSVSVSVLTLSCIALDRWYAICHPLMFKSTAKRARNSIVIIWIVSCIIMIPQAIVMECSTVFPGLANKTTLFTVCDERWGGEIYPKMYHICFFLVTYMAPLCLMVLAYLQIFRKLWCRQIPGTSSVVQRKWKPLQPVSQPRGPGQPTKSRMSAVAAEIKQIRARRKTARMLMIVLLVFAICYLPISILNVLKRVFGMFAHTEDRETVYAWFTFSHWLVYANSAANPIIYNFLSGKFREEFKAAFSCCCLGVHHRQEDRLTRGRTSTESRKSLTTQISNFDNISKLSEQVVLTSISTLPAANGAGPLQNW
Description: Compound was evaluated for its binding affinity towards Orexin receptor type 2

[8] = Brain level determined after 4 hr from a bolus 10 mg/kg ip dosing; type: functional; conditions: route intraperitoneal
[9] = Half life was evaluated in vivo after intraperitoneal administration; conditions: ip

Ki [2]: 15.8 nM
Ki [5]: 50.1 nM
SMILES: COc1ccc(NC(=O)Nc2ccnc3ccccc23)cc1Cl

pKb [1]: < 6.2
SMILES: N#Cc1ccc(NC(=O)Nc2ccnc3ccccc23)cc1

pKb [1]: 7.4
SMILES: CN(C)c1ccc(NC(=O)Nc2ccnc3ccccc23)cc1Cl

pKb [1]: 7
SMILES: O=C(Nc1ccc2ncoc2c1)Nc1ccnc2ccccc12

pKb [1]: 6.4
SMILES: O=C(Nc1cccc(Cl)c1)Nc1ccnc2ccccc12

pKb [1]: 7.5
Ki [2]: 2.51 nM
Ki [5]: 25.1 nM
SMILES: Cn1ccc2cc(NC(=O)Nc3ccnc4ccccc34)ccc21

pKb [1]: 6.2
SMILES: O=C(Nc1ccc2[nH]ccc2c1)Nc1ccnc2ccccc12

pKb [1]: < 6.2
SMILES: O=C(Nc1ccc2ocnc2c1)Nc1ccnc2ccccc12

pKb [1]: 6.8
SMILES: COc1ccc(NC(=O)Nc2ccnc3ccccc23)cc1

pKb [1]: < 6.1
SMILES: O=C(Nc1ccccc1)Nc1ccnc2ccccc12

pKb [1]: < 6.1
SMILES: Nc1ccc(NC(=O)Nc2ccnc3ccccc23)cc1

pKb [1]: 6.6
SMILES: COc1cccc(NC(=O)Nc2ccnc3ccccc23)c1

pKb [1]: 6.1
SMILES: CN(C)c1cccc(NC(=O)Nc2ccnc3ccccc23)c1

pKb [1]: 7.9
Ki [2]: 31.6 nM
Css [3]: 1000 nM
Ki [5]: 31.6 nM
SMILES: CSc1ccc(NC(=O)Nc2ccnc3ccccc23)cc1
Ratio [4]: 0.1

pKb [1]: < 6.3
SMILES: COc1ccc(NC(=O)Nc2ccnc3ccccc23)cc1OC

pKb [1]: 7.8
Ki [2]: 79.4 nM
Css [3]: 4200 nM
Ki [5]: 126 nM
SMILES: CN(C)c1ccc(NC(=O)Nc2ccnc3ccccc23)cc1
Ratio [4]: 0.06

More lines, now with the values behind:

SMILES: O=C(Nc1ccc2c(ccn2Cc2ccccc2)c1)Nc1ccnc2ccccc12
pKb [1]: < 6.1

SMILES: CCN(CC)c1ccc(NC(=O)Nc2ccnc3ccccc23)cc1
pKb [1]: 7.4
Ki [2]: 50.1 nM
Css [3]: 700 nM
Ratio [4]: 0.16
Ki [5]: 31.6 nM

SMILES: Cn1ccc2cc(NC(=O)Nc3cccc4ccccc34)ccc21
pKb [1]: < 6.3

SMILES: Cn1ccc2cc(NC(=O)Nc3ccnc4cccnc34)ccc21
pKb [1]: 7.3

SMILES: Cc1nc2ccc(NC(=O)Nc3ccnc4ccccc34)cc2o1
pKb [1]: 7.7
Ki [2]: 631 nM
Ki [5]: 631 nM

SMILES: Cn1ccc2cc(NC(=O)Nc3ccncc3)ccc21
pKb [1]: < 5

SMILES: O=C(Nc1ccc(N2CCCC2)cc1)Nc1ccnc2ccccc12
pKb [1]: 6.4

SMILES: CN1CCc2cc(NC(=O)Nc3ccnc4ccccc34)ccc21
pKb [1]: 7.6
Ki [2]: 12.6 nM
Ki [5]: 50.1 nM

SMILES: Cc1cc2cc(NC(=O)Nc3ccnc4ccccc34)ccc2n1C
Ki [2]: 3.98 nM
Ki [5]: 79.4 nM

SMILES: CSc1ccc(NC(=O)Nc2ccnc3cccnc23)cc1
pKb [1]: 7.5

SMILES: Cc1nc2ccc(NC(=O)Nc3ccnc4ncccc34)cc2o1
pKb [1]: 6.5

SMILES: O=C(Nc1ccc2c(c1)OCCCO2)Nc1ccnc2ccccc12
pKb [1]: 7.4

SMILES: Cn1ccc2cc(NC(=O)Nc3ncnc4ccccc34)ccc21
pKb [1]: < 6.3

SMILES: Cc1nc2ccc(NC(=O)Nc3ccnc4ccncc34)cc2o1
pKb [1]: 5.9

SMILES: Cc1nc2ccc(NC(=O)Nc3ccnc4cccnc34)cc2o1
pKb [1]: 7.4
bioavailability (in vivo): 10%
Brain level [6]: 3.8 µM
Ki [2]: 3980 nM
Css [3]: 490 nM
pKb [7]: 5.7
Brain level [8]: <30 nM
half-life [9]: 24 min
Ratio [4]: 0.4
Ki [5]: > 5010 nM
